Drawing on US8962608B2, “Cycloalkylnitrile pyrazole carboxamides as janus kinase inhibitors” (Merck Sharp & Dohme Corp., priority 2011, dated 2015), this text covers IC50 for 22 compounds.

Molecules are shown by their SMILES. pIC50: −log10 of the molar value.

Assay [1] concerns the target JAK1 (recombinant purified GST-tagged catalytic domain) (Homo sapiens (Human), UniProt P23458). In words: biochemical.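 Further: biochemical assay with HTRF read-out.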
For assay [2], the target named is JAK2 (recombinant purified GST-tagged catalytic domain) (Homo sapiens (Human), UniProt O60674). The assay is described as follows: biochemical.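 Further: biochemical JAK kinase assay with HTRF detection.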
Chain of JAK2 (recombinant purified GST-tagged catalytic domain) (O60674 849-1124): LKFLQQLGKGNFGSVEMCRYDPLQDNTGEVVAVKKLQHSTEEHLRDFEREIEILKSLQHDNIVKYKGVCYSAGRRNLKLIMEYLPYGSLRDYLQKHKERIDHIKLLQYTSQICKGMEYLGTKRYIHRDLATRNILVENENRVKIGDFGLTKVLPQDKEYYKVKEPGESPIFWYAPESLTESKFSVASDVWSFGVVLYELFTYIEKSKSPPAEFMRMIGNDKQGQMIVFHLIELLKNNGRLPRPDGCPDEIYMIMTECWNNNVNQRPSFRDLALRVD

Chain of JAK1 (recombinant purified GST-tagged catalytic domain) (P23458 875-1153): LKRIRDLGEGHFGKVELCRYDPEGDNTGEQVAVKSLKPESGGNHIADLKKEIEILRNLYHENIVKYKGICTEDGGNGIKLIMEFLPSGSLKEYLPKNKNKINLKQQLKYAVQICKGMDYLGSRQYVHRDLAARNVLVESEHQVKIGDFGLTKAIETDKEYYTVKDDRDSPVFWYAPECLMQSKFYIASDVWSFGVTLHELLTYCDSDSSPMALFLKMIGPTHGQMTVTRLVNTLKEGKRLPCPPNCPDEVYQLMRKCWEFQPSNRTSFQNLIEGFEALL

Turning to `N#C[C@H]1C[C@H](N[C@H](C2CC2)C(F)(F)F)CC[C@@H]1n1cc(C(N)=O)c(Nc2ccc(C(F)(F)F)cc2)n1` (single isomer, unassigned) [Example 28-193, 1-[(1S,2S,4R or 1R,2R,4S)-2-cyano-4-{[(1R)-1-cyclopropyl-2,2,2-trifluoroethyl]amino}cyclo-hexyl]-3-{[4-(trifluoromethyl)phenyl]amino}-1H-pyrazole-4-carboxamide], the negative logarithm of the IC50 (pIC50) is 6.78 in assay [1] and 6.00 in assay [2].
`N#C[C@H]1C[C@@H](N[C@@H](C2CC2)C(F)(F)F)CC[C@@H]1n1cc(C(N)=O)c(Nc2ccc(C(F)(F)F)cc2)n1` (single isomer, unassigned) [Example 28-194, 1-[(1S,2S,4S or 1R,2R,4R)-2-cyano-4-{[(1S)-1-cyclopropyl-2,2,2-trifluoroethyl]amino}cyclo-hexyl]-3-{[4-(trifluoromethyl)phenyl]amino}-1H-pyrazole-4-carboxamide]: the pIC50 is 8.40 in assay [1] and 6.82 in assay [2].
In the case of `N#C[C@H]1C[C@H](N[C@@H](C2CC2)C(F)(F)F)CC[C@@H]1n1cc(C(N)=O)c(Nc2ccc(C(F)(F)F)cc2)n1` (single isomer, unassigned) [Example 28-195, 1-[(1S,2S,4R or 1R,2R,4S)-2-cyano-4-{[(1R)-1-cyclopropyl-2,2,2-trifluoroethyl]amino}cyclo-hexyl]-3-{[4-(trifluoromethyl)phenyl]amino}-1H-pyrazole-4-carboxamide], the pIC50 is 6.75 in assay [1] and 6.43 in assay [2].
Regarding `CC1(O)CN([C@H]2CC[C@H](n3cc(C(N)=O)c(Nc4ccc(C(F)(F)F)cc4)n3)[C@@H](C#N)C2)C1` (single isomer, unassigned) [Example 28-198, 1-[(1S,2S,4S or 1R,2R,4R)-2-cyano-4-(3-hydroxy-3-methylazetidin-1-yl)cyclohexyl]-3-{[4-(trifluoromethyl)phenyl]amino}-1H-pyrazole-4-carboxamide], the negative logarithm of the IC50 (pIC50) in assay [1] was 9.82; in assay [2], 8.52.
For `CC1(O)CN([C@@H]2CC[C@H](n3cc(C(N)=O)c(Nc4ccc(C(F)(F)F)cc4)n3)[C@@H](C#N)C2)C1` (single isomer, unassigned) [Example 28-199, 1-[(1S,2S,4R or 1R,2R,4S)-2-cyano-4-(3-hydroxy-3-methylazetidin-1-yl)cyclohexyl]-3-{[4-(trifluoromethyl)phenyl]amino}-1H-pyrazole-4-carboxamide], the pIC50 is 9.52 in assay [1] and 8.05 in assay [2].
For the compound `CC(C)(C)N[C@H]1CCC(n2cc(C(N)=O)c(Nc3ccc(C(F)(F)F)cc3)n2)[C@@H](C#N)C1` (single isomer, unassigned) [Example 28-204, 1-[(1S,2S,4S or 1R,2R,4R)-4-(tert-butylamino)-2-cyanocyclohexyl]-3-{[4-(trifluoromethyl)phenyl]amino}-1H-pyrazole-4-carboxamide], the negative logarithm of the IC50 (pIC50) in assay [1] is 9.70; in assay [2], 7.59.
As to `CC(C)(CO)N[C@H]1CCC(n2cc(C(N)=O)c(Nc3ccc(Cl)cc3)n2)[C@@H](C#N)C1` (single isomer, unassigned) [Example 28-210, 3-[(4-chlorophenyl)amino]-1-{(1S,2S,4S or 1R,2R,4R)-2-cyano-4-[(2-hydroxy-1,1-dimethylethyl)amino]cyclo-hexyl}-1H-pyrazole-4-carboxamide], the pIC50 in assay [1] was 9.00; in assay [2], 7.39.
`CC1(N[C@H]2CCC(n3cc(C(N)=O)c(Nc4ccccc4)n3)[C@@H](C#N)C2)CC1` (single isomer, unassigned) [Example 28-216, 1-{(1S,2S,4S or 1R,2R,4R)-2-cyano-4-[(1-methylcyclopropyl)amino]cyclo-hexyl}-3-(phenylamino)-1H-pyrazole-4-carboxamide]: the negative logarithm of the IC50 (pIC50) in assay [1] is 8.70; in assay [2], 7.62.
`CN(CC1(C)COC1)[C@H]1CCC(n2cc(C(N)=O)c(Nc3ccc(Cl)cc3)n2)[C@@H](C#N)C1` (single isomer, unassigned) [Example 28-219, 3-[(4-chlorophenyl)amino]-1-[(1S,2S,4S or 1R,2R,4R)-2-cyano-4-{methyl[(3-methyloxetan-3-yl)methyl]amino}cyclohexyl]-1H-pyrazole-4-carboxamide]: the figures for the pIC50 in assay [1] and in assay [2] were 9.00 and 7.96, respectively.
For the compound `CC(C)(O)CN[C@H]1CCC(n2cc(C(N)=O)c(Nc3ccc(Cl)cc3)n2)[C@@H](C#N)C1` (single isomer, unassigned) [Example 28-221, 3-[(4-chlorophenyl)amino]-1-{(1S,2S,4S or 1R,2R,4R)-2-cyano-4-[(2-hydroxy-2-methylpropyl)amino]cyclo-hexyl}-1H-pyrazole-4-carboxamide], the figures for the negative logarithm of the IC50 (pIC50) in assay [1] and in assay [2] were 8.70 and 7.38, respectively.
Consider `N#C[C@H]1C[C@@H](NC2(CO)CC2)CCC1n1cc(C(N)=O)c(Nc2ccc(Cl)cc2)n1` (single isomer, unassigned) [Example 28-223, 3-[(4-chlorophenyl)amino]-1-[(1S,2S,4S or 1R,2R,4R)-2-cyano-4-{[1-(hydroxymethyl)cyclopropyl]a-mino}cyclohexyl]-1H-pyrazole-4-carboxamide], for which the values for the pIC50 in assay [1] and in assay [2] were 8.70 and 7.85, respectively.
As to `N#C[C@H]1C[C@@H](NC2(C(F)(F)F)CC2)CC[C@@H]1n1cc(C(N)=O)c(Nc2ccc(Cl)cc2)n1` (single isomer, unassigned) [Example 28-226, 3-[(4-chlorophenyl)amino]-1-[(1S,2S,4S or 1R,2R,4R)-2-cyano-4-{[1-(trifluoro-methyl)cyclopropyl]a-mino}cyclohexyl]-1H-pyrazole-4-carboxamide], the pIC50 is 8.30 in assay [1] and 7.44 in assay [2].
`N#C[C@H]1C[C@H](NC2(C(F)(F)F)CC2)CC[C@@H]1n1cc(C(N)=O)c(Nc2ccc(Cl)cc2)n1` (single isomer, unassigned) [Example 28-227, 3-[(4-chlorophenyl)amino]-1-[(1S,2S,4R or 1R,2R,4S)-2-cyano-4-{[1-(trifluoro-methyl)cyclopropyl]a-mino}cyclohexyl]-1H-pyrazole-4-carboxamide]: the results for the negative-log IC50 (pIC50) in assay [1] and in assay [2] were 7.57 and 6.73, respectively.
The like results for `COC(C)(C)CN[C@H]1CCC(n2cc(C(N)=O)c(Nc3ccc(Cl)cc3)n2)[C@@H](C#N)C1` (single isomer, unassigned) [Example 28-228, 3-[(4-chlorophenyl)amino]-1-{(1S,2S,4S or 1R,2R,4R)-2-cyano-4-[(2-methoxy-2-methylpropyl)amino]cyclo-hexyl}-1H-pyrazole-4-carboxamide] were, in that order, 8.70 and 7.32.
Take `CC1(N[C@H]2CCC(n3cc(C(N)=O)c(Nc4ccccc4)n3)[C@@H](C#N)C2)COC1` (single isomer, unassigned) [Example 28-230, 1-{(1S,2S,4S or 1R,2R,4R)-2-cyano-4-[(3-methyloxetan-3-yl)amino]cyclohexyl}-3-(phenylamino)-1H-pyrazole-4-carboxamide]: the negative-log IC50 (pIC50) in assay [1] was 8.40; in assay [2] it was 7.62.
On the same counts, the results for `COCCN[C@H]1CCC(n2cc(C(N)=O)c(Nc3ccc(Cl)cc3)n2)[C@@H](C#N)C1` (single isomer, unassigned) [Example 28-236, 3-[(4-chlorophenyl)amino]-1-{(1S,2S,4S or 1R,2R,4R)-2-cyano-4-[(2-methoxyethyl)amino]cyclo-hexyl}-1H-pyrazole-4-carboxamide] are 9.05 and 7.64.
For `COCCN(C)[C@H]1CCC(n2cc(C(N)=O)c(Nc3ccc(Cl)cc3)n2)[C@@H](C#N)C1` (single isomer, unassigned) [Example 28-239, 3-[(4-chlorophenyl)amino]-1-{(1S,2S,4S or 1R,2R,4R)-2-cyano-4-[(2-methoxy-ethyl)(methyl)amino]cyclo-hexyl}-1H-pyrazole-4-carboxamide], the negative-log IC50 (pIC50) was 8.70 in assay [1] and 7.70 in assay [2].
For `COCC(C)N(C)[C@H]1CCC(n2cc(C(N)=O)c(Nc3ccc(Cl)cc3)n2)[C@@H](C#N)C1` (single isomer, unassigned) [Example 28-240, 3-[(4-chlorophenyl)amino]-1-[(1S,2S,4S or 1R,2R,4R)-2-cyano-4-{[(1S or 1R)-2-methoxy-1-methylethyl](methyl)ami-no}cyclohexyl]-1H-pyrazole-4-carboxamide], the pIC50 in assay [1] was 8.70; in assay [2], 7.57.
The like results for `CN(C1COC1)[C@H]1CC[C@@H](n2cc(C(N)=O)c(Nc3ccc(C(F)(F)F)cc3)n2)[C@H](C#N)C1` (single isomer, unassigned) [Example 30-1, 1-{(1R,2R,4S or 1S,2S,4R)-2-Cyano-4-[methyl(oxetan-3-yl)amino]cyclohexyl}-3-{[4-(trifluoromethyl)phenyl]amino}-1H-pyrazole-4-carboxamide] were, in that order, 8.05 and 6.97.
Consider `N#C[C@@H]1C[C@@H](NC2CC3(CCCC3)C2)CC[C@H]1n1cc(C(N)=O)c(Nc2ccc(C(F)(F)F)cc2)n1` (single isomer, unassigned) [Example 30-5, 1-[(1R,2R,4S or 1S,2S,4R)-2-cyano-4-(spiro[3.4]oct-2-ylamino)cyclohexyl]-3-{[4-(trifluoromethyl)phenyl]amino}-1H-pyrazole-4-carboxamide], for which the pIC50 was 7.68 in assay [1] and 6.18 in assay [2].
With `CN(C1CCC1)[C@H]1CC[C@@H](n2cc(C(N)=O)c(Nc3ccc(C(F)(F)F)cc3)n2)[C@H](C#N)C1` (single isomer, unassigned) [Example 30-8, l-{(1R,2R,4S or 1S,2S,4R)-2-cyano-4-[cyclo-butyl(methyl)amino]cyclohexyl}-3-{[4-(trifluoro-methyl)phenyl]amino}-1H-pyrazole-4-carboxamide], the pIC50 was 8.22 in assay [1] and 6.62 in assay [2].
On to `N#C[C@H]1C[C@H](NC2CCC2)CC[C@@H]1n1cc(C(N)=O)c(Nc2ccc(C(F)(F)F)cc2)n1` (single isomer, unassigned) [Example 30-14, 1-[(1S,2S,4R or 1R,2R,4S)-2-cyano-4-(cyclobutylamino)cyclohexyl]-3-{[4-(trifluoro-methyl)phenyl]amino}-1H-pyrazole-4-carboxamide], for which the negative logarithm of the IC50 (pIC50) in assay [1] was 7.29; in assay [2], 5.98.
